Several values for one entry are separate records, joined by “and”; a condition that tells them apart may be missing. Equal entries are not always repeated. Entries after “also recorded” stand apart in the source; their conditions may differ. Structures can show the parent of a compound that is named as a salt. Where two headings read alike, the source gives them in different places.
Experiments:
[1] = target: CYP2E1 (Homo sapiens, UniProt P05181); conditions: cited from earlier work
[2] = tested on: human liver microsomes (HLMs); test: Kinetic analysis of MH metabolism in HLMs; assay type: in vitro ADME; conditions: HLMs 0.5 mg/mL, MH 0.5–100 µM, 30 min, 37°C
[3] = target: T1, CYP2C19 (Homo sapiens, UniProt P33261); test: Kinetic analysis of MH metabolism by recombinant CYP2C19; assay type: in vitro ADME; design: purchased Cypex Ltd. (U.K.); conditions: recombinant CYP2C19 10 pmol
T1 sequence (P33261 whole entry): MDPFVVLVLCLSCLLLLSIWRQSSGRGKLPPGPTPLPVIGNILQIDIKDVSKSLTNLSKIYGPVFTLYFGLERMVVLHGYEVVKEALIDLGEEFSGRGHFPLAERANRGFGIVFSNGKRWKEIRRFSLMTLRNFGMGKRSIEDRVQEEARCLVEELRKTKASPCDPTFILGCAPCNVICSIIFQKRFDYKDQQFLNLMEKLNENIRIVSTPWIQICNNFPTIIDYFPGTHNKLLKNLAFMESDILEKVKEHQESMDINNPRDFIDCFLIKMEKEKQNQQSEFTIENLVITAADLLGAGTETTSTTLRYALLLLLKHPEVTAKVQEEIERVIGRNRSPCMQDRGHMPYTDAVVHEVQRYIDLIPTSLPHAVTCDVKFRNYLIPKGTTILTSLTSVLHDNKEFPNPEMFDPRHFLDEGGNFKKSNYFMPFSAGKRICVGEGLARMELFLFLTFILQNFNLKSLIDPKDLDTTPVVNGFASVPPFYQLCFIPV
Procedure: (§1) The samples were vortexed for 5 min.
(§2) Kinetic analysis was performed for MH, and the data generated were used as a guide for selecting the appropriate concentrations of MH in the subsequent inhibition experiments. Thus, the kinetic parameters for the metabolism of MH was determined by incubating increasing concentrations of MH (0.5–100 µM) (without the inhibitor) at 37°C with the HLMs and NADPH under the incubation conditions. The equation of MH reaction velocity (V) in the HLMs or CYP isoforms was expressed as V = (C0–Ct)/T/Cp, where C0 and Ct represented the initial and final concentrations of MH in the incubation solution, respectively. T was the incubation time (min) and Cp was the protein concentration (mg/mL or nmol). All values were expressed as the mean±standard deviation (SD). The mean intrinsic clearance rate (CLint) for the in vitro incubation was estimated using Vmax/Km.
(§3) P<0.05 denoted significance in all cases.

[4] = target: T2, CYP3A4 (Homo sapiens, UniProt P08684); test: Effect of specific inhibitor ketoconazole on MH metabolism in HLMs; assay type: in vitro ADME; conditions: MH 10 µM, in the presence of KET 1 µM
T2 construct: tissue Cypex Ltd. (U.K.); host or cells: pooled human liver microsomes, ten donors
T2 sequence (P08684 whole entry): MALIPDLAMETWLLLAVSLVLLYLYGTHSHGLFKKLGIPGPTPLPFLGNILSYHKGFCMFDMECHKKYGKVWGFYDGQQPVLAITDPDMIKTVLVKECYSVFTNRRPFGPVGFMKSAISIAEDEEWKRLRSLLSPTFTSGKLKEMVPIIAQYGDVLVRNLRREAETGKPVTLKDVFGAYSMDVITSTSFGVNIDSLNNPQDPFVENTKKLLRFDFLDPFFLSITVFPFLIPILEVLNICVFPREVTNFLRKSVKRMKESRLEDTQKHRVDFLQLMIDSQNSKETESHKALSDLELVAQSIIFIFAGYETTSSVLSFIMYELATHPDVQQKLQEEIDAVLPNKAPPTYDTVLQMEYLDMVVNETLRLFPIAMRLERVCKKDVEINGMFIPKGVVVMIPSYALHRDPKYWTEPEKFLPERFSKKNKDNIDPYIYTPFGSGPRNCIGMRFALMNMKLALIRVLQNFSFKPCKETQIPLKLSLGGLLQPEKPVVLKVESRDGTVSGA
Procedure: as §1, §3

[5] = target: T3, CYP1A2 (Homo sapiens, UniProt P05177); test: Effect of specific inhibitor furafylline on MH metabolism in HLMs; assay type: in vitro ADME; design: tissue Cypex Ltd. (U.K.); host or cells: pooled human liver microsomes, ten donors; conditions: MH 10 µM, in the presence of FUR 1 µM
T3 sequence (P05177 1-516): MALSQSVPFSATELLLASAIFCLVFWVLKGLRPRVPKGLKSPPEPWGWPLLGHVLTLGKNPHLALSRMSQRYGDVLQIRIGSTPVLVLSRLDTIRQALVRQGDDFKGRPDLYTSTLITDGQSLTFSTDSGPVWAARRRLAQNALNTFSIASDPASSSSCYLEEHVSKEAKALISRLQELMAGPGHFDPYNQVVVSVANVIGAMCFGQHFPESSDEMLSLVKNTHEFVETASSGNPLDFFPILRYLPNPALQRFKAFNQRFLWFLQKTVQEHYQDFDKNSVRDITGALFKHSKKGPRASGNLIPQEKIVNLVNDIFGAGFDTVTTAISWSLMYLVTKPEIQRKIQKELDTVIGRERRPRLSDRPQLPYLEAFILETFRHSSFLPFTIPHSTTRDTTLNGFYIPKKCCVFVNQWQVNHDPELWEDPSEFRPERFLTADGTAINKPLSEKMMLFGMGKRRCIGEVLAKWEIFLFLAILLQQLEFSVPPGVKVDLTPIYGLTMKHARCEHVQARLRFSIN
Procedure: as §1, §3

[6] = target: T4, CYP2C9 (Homo sapiens, UniProt P11712); test: Inhibition of CYP2C9 (tolbutamide 4-hydroxylation) in HLMs; assay type: in vitro ADME
T4 construct: tissue Cypex Ltd. (U.K.); host or cells: pooled human liver microsomes, ten donors
T4 sequence (P11712 whole entry): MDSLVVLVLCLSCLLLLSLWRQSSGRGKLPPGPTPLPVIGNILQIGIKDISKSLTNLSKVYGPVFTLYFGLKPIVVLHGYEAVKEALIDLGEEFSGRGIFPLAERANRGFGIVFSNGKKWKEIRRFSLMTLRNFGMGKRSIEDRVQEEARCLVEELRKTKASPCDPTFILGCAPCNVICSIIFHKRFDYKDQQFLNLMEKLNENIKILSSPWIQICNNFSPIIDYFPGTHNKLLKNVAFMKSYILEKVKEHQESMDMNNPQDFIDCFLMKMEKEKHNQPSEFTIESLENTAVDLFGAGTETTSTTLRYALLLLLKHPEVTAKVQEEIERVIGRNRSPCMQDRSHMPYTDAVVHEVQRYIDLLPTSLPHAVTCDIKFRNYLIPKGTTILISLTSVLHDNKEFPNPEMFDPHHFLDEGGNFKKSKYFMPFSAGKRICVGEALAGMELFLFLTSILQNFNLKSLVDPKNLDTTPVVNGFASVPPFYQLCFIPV
Procedure: as §1
(§4) All incubation conditions were the same as mentioned above.
as §3

[7] = tested on: longitudinal and circular jejunum muscles; conditions: dose-dependent manner; cited from earlier work
[8] = target: T1, CYP2C19; test: MCR of MH with recombinant CYP2C19 inhibited by ticlopidine; assay type: in vitro ADME; design: purchased Cypex Ltd. (U.K.); conditions: ticlopidine 1 µM
Procedure: as §1
(§5) Figure 3 Effect on the metabolic clearance rate (MCR) of meranzin hydrate (MH) under the inhibition of recombinant CYP1A2 and CYP2C19. […] Each point represents the average of triplicate incubations.

[9] = target: T3, CYP1A2; test: MCR of MH with recombinant CYP1A2 inhibited by furafylline; assay type: in vitro ADME; design: purchased Cypex Ltd. (U.K.); conditions: furafylline 1 µM
Procedure: as §1, §5

[10] = target: T2, CYP3A4; test: Inhibition of CYP3A4 (midazolam 1-hydroxylation) in HLMs; assay type: in vitro ADME
Procedure: as §1, §4, §3

[11] = design: method as in PMID 21061180; conditions: rats; cited from earlier work
[12] = target: T1, CYP2C19; test: Effect of specific inhibitor ticlopidine on MH metabolism in HLMs; assay type: in vitro ADME; design: tissue Cypex Ltd. (U.K.); host or cells: pooled human liver microsomes, ten donors; conditions: MH 10 µM, in the presence of TIC 1 µM
Procedure: as §1, §3

[13] = target: T4, CYP2C9; test: Effect of specific inhibitor sulfaphenazole on MH metabolism in HLMs; assay type: in vitro ADME; conditions: MH 10 µM, in the presence of SUL 1 µM
Procedure: as §1, §3

[14] = target: T5, CYP2D6 (Homo sapiens, UniProt P10635); test: Inhibition of CYP2D6 (metoprolol α-hydroxylation) in HLMs; assay type: in vitro ADME
T5 construct: tissue Cypex Ltd. (U.K.); host or cells: pooled human liver microsomes, ten donors
T5 sequence (P10635 whole entry): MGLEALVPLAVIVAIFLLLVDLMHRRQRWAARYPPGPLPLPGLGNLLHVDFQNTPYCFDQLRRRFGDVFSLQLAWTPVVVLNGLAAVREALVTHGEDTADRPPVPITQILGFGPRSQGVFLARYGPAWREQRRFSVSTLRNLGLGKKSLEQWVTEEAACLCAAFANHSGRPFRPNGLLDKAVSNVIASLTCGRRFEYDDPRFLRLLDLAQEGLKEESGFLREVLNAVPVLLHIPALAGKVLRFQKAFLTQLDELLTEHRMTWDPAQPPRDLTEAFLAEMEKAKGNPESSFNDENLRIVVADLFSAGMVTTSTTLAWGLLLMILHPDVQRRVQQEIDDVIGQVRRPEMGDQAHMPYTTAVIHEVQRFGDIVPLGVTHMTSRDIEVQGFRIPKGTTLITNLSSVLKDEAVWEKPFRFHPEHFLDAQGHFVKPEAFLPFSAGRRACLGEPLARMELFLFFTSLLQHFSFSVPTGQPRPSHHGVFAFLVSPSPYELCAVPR
Procedure: as §1, §4, §3

[15] = target: T1, CYP2C19; test: Inhibition of CYP2C19 (S-Mephenytoin 4-hydroxylation) in HLMs; assay type: in vitro ADME; design: tissue Cypex Ltd. (U.K.); host or cells: pooled human liver microsomes, ten donors
Procedure: as §1, §4
(§6) Therefore, Dixon plots for the inhibition of CYP1A2 and CYP2C19 were determined by incubating the substrate probe at multiple concentrations with or without the test inhibitor at multiple concentrations with the HLMs and cofactors. The inhibition data obtained from the pilot experiments were used as a guide to generate appropriate probe substrate and test inhibitor concentrations for the determination of the Ki values for each CYP isoform. The isoform-specific probe substrate concentrations used were 3 to 100 µM phenacetin for CYP1A2 and 15 to 120 µM S-mephenytoin for CYP2C19. The MH concentrations used were 0 to 100 µM.
as §3

[16] = target: T3, CYP1A2; test: Kinetic analysis of MH metabolism by recombinant CYP1A2; assay type: in vitro ADME; design: purchased Cypex Ltd. (U.K.); conditions: recombinant CYP1A2 10 pmol
Procedure: as §1, §2, §3

[17] = target: T3, CYP1A2; test: Inhibition of CYP1A2 (phenacetin O-deethylation) in HLMs; assay type: in vitro ADME; design: tissue Cypex Ltd. (U.K.); host or cells: pooled human liver microsomes, ten donors
Procedure: as §1, §4, §6, §3

[18] = target: T5, CYP2D6; test: Effect of specific inhibitor quinidine on MH metabolism in HLMs; assay type: in vitro ADME; conditions: MH 10 µM, in the presence of QUI 1 µM
Procedure: as §1, §3

Chain of CYP2E1 (P05181 whole entry): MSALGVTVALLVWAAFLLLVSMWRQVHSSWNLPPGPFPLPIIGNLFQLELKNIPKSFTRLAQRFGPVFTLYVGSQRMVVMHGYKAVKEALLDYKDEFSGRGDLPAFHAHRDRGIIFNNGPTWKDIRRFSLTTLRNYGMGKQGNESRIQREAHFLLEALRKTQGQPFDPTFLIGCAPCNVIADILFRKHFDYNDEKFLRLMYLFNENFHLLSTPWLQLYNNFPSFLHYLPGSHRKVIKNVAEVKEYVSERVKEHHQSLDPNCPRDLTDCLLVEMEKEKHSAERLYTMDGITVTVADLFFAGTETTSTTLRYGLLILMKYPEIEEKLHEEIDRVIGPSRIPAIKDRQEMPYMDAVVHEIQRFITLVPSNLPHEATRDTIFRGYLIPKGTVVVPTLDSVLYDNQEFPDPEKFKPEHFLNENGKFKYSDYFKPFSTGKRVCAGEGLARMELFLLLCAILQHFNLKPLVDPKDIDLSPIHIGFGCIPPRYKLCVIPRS

## CCN(CC)C(=S)S [DIE, diethyldithiocarbamate]
[1]
  IC50: 21.3 µM

## COc1ccc2ccc(=O)oc2c1C[C@H](O)C(C)(C)O [MH, Meranzin hydrate]
[2]
  Km: 10.3 ± 1.3 µM
  Vmax of MH metabolism: 99.1±3.3 nmol/mg protein/min
[2]; listed as Meranzin hydrate
  Km: 10.3 µM
  Vmax of MH metabolism: 99.11 nmol/mg protein/min
[3]
  Km: 25.9 ± 6.6 µM
  Vmax of MH metabolism: 134.3±12.4 nmol/nmol P450/min
[3]; listed as Meranzin hydrate
  Km: 25.9 µM
  Vmax of MH metabolism: 134.3 nmol/nmol P450/min
[4]
  effect on metabolism (MCR) of MH: no obvious inhibitory effects
[5]
  metabolic clearance rate (MCR) of MH, % of that of the control: 29.1±7.2% and 29.1%
[6]; CYP2C9, classification of Kong et al [23], read-out: inhibitor potency class by IC50
  IC50: > 50 µM
[6]; HLMs, tolbutamide 100 µM, read-out: IC50
  IC50: > 100 µM
[7]
  amplitude of contractility in the longitudinal and circular jejunum muscles: increase the amplitude of contractility
[8]; recombinant CYP2C19, MH 10 µM
  MCR of MH, % of that of the control: 68.5%
[8]; recombinant CYP2C19, MH 50 µM
  MCR of MH, % of that of the control: 80.5%
[9]; recombinant CYP1A2, MH 10 µM
  MCR of MH, % of that of the control: 43.5%
[9]; recombinant CYP1A2, MH 50 µM
  MCR of MH, % of that of the control: 60.5%
[10]; CYP3A4, classification of Kong et al [23], read-out: inhibitor potency class by IC50
  IC50: > 50 µM
[10]; HLMs, midazolam 5 µM, read-out: IC50
  IC50: > 100 µM
[11]
  gastric emptying: significantly accelerated
  intestinal transit: significantly accelerated
[12]
  metabolic clearance rate (MCR) of MH, % of that of the control: 41.3±11.1% and 41.3%
[13]
  effect on metabolism (MCR) of MH: no obvious inhibitory effects
[14]; CYP2D6, classification of Kong et al [23], read-out: inhibitor potency class by IC50
  IC50: > 50 µM
[14]; HLMs, metoprolol 7.5 µM, read-out: IC50
  IC50: > 100 µM
[15]; CYP2C19, HLMs, Dixon / Lineweaver-Burk plots
  type of inhibition: competitively; also recorded: full competitive inhibition
[15]; CYP2C19, classification of Kong et al [23], read-out: inhibitor potency class by IC50
  IC50: 10 to 50 µM
[15]; HLMs, S-mephenytoin 15 to 120 µM, MH 0 to 100 µM
  Ki: 42.6 µM
[16]
  Km: 8 ± 1.6 µM
  Vmax of MH metabolism: 112.4±5.7 nmol/nmol P450/min
[16]; listed as Meranzin hydrate
  Vmax of MH metabolism: 112.4 nmol/nmol P450/min
[17]; CYP1A2, HLMs, Dixon / Lineweaver-Burk plots
  type of inhibition: competitive
[17]; CYP1A2, phenacetin O-deethylation, HLMs, higher than FUR
  IC50 of MH relative to that of FUR: 3.2 fold
[17]; CYP1A2, phenacetin O-deethylation, higher than FUR
  Ki of MH relative to that of FUR: approximately 1.5 fold
[17]; CYP1A2, classification of Kong et al [23], read-out: inhibitor potency class by IC50
  IC50: < 10 µM
[17]; HLMs, phenacetin 10 µM, brackets = 95% confidence interval, read-out: IC50
  IC50: 4.47 µM
[17]; HLMs, phenacetin 3 to 100 µM, MH 0 to 100 µM
  Ki: 4.56 µM
[18]
  effect on metabolism (MCR) of MH: no obvious inhibitory effects

## Cc1ncsc1CCCl [CHL, chlormethiazole hydrochloride]
[1]; read-out: Ki, specific inhibitor reported value, CYP2E1
  Ki: 12 µM
